Assay [1] deals with T1, Coagulation factor XI (Homo sapiens, UniProt P03951). Description: Inhibition of human factor XIa.
In assay [2] the target is T1, Coagulation factor XI. The experiment in a line: Inhibition of human recombinant FXIa assessed as S-2366 hydrolysis.
In assay [3] the target is T1, Coagulation factor XI. Description: Inhibition of human Factor XIa assessed as substrate hydrolysis measured by measuring residual activity after 10 mins by chromogenic substrate hydrolysis assay relative to control.
Assay [4] addresses Coagulation factor X (Homo sapiens) (UniProt P00742). Description: Inhibition of human factor Xa assessed as fold change relative to basal value.
The target of assay [5] is T2, Prothrombin (Homo sapiens, UniProt P00734). Description: Inhibition of thrombin in human plasma measured after 10 mins by chromogenic substrate hydrolysis assay. The class given is cell-free.
For assay [6], the target named is T2, Prothrombin. The experiment in a line: Inhibition of thrombin in human plasma assessed as maximal efficacy measured after 10 mins by chromogenic substrate hydrolysis assay relative to control. The class given is cell-free.

Structures are written as SMILES.

From ChEMBL document CHEMBL5338735, “Designing Smaller, Synthetic, Functional Mimetics of Sulfated Glycosaminoglycans as Allosteric Modulators of Coagulation Factors” (J Med Chem, 2023) come the findings set out here.

What is called IC50 is the midpoint of a concentration-inhibition curve.

T1 sequence (P03951 19-387 limits assumed): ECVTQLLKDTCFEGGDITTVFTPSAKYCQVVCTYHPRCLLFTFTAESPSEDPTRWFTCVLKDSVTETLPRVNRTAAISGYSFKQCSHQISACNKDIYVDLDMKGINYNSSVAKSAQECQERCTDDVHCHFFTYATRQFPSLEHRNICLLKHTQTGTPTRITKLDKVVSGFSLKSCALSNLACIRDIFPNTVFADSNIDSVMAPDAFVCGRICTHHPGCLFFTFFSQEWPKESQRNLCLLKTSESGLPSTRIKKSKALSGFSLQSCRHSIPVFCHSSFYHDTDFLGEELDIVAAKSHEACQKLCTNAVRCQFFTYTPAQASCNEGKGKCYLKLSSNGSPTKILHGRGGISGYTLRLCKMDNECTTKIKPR
T1 sequence (P03951 388-625 limits assumed): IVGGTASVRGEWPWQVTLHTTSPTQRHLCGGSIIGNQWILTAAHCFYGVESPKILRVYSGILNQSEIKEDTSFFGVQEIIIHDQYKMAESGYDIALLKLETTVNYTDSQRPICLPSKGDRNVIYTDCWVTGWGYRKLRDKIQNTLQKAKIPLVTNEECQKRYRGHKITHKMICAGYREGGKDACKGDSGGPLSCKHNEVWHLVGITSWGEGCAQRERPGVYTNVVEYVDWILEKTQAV
Chain of Coagulation factor X (Homo sapiens) (P00742 41-179 limits assumed): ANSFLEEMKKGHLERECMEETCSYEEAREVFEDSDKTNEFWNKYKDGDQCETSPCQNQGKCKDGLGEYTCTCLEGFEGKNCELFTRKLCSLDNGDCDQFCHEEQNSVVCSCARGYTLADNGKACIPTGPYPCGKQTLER
Chain of Coagulation factor X (Homo sapiens) (P00742 235-488 limits assumed): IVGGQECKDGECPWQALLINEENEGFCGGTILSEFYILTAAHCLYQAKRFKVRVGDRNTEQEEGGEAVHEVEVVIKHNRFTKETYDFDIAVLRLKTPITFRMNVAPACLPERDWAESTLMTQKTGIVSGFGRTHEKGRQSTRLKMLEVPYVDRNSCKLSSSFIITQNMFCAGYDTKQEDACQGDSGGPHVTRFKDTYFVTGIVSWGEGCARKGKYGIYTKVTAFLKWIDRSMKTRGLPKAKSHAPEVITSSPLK

At Coagulation factor XI [1], `COc1cc(CCCS(=O)(=O)O)ccc1O[C@H](Cc1cccc(OC)c1O)CS(=O)(=O)O` displayed an IC50 of 150 nM.
For `O=C(O[C@@H]1[C@H](OC(=O)c2cc(OS(=O)(=O)O)cc(OS(=O)(=O)O)c2)[C@@H](OC(=O)c2cc(OS(=O)(=O)O)cc(OS(=O)(=O)O)c2)[C@H](OC(=O)c2ccc(OS(=O)(=O)O)cc2OS(=O)(=O)O)[C@@H](OC(=O)c2cc(OS(=O)(=O)O)cc(OS(=O)(=O)O)c2)[C@H]1OC(=O)c1cc(OS(=O)(=O)O)cc(OS(=O)(=O)O)c1)c1cc(OS(=O)(=O)O)cc(OS(=O)(=O)O)c1`, the IC50 at Coagulation factor XI [2] stood at 280 nM.
With `Cc1ccc(C(=O)Nc2ccc(CP(=O)(O)O)cc2CP(=O)(O)O)cc1NC(=O)c1cccc(NC(=O)Nc2cccc(C(=O)Nc3cc(C(=O)Nc4ccc(CP(=O)(O)O)cc4CP(=O)(O)O)ccc3C)c2)c1`, the Activity on Coagulation factor XI [3] was 68%.
With `O=S(=O)(O)Oc1cc2c(c(OS(=O)(=O)O)c1)C[C@@H](OS(=O)(=O)O)[C@@H](c1ccc(OS(=O)(=O)O)c(OS(=O)(=O)O)c1)O2`, the fold change (FC) in assay [4] was determined as 10.8.
`COc1cc2oc(C)c(C(=O)OC(C)(C)C)c2cc1OCc1oc2cc(OC)c(OS(=O)(=O)O)cc2c1C(=O)OC(C)(C)C`: the IC50 against Coagulation factor XI [1] was 7300 nM.
Consider `O=c1oc2cc(OCCCCn3cc(COc4ccc(-c5oc(=O)c6c(Cl)cc(Cl)cc6c5-c5ccccc5)cc4)nn3)ccc2c(-c2ccccc2)c1-c1ccc(OS(=O)(=O)O)cc1`, for which the concentration for half-maximal inhibition (IC50) on Prothrombin [5] stood at 180 nM. Further, at Prothrombin [6], the Efficacy was 47%.
For the compound `COc1cc2oc(C)c(C(=O)O)c2cc1OS(=O)(=O)O`, the IC50 at Coagulation factor XI [1] is greater than 2000 nM.
As to `O=S(=O)(O)Oc1cc2c(c(OS(=O)(=O)O)c1)C[C@H](OS(=O)(=O)O)[C@@H](c1ccc(OS(=O)(=O)O)c(OS(=O)(=O)O)c1)O2`, in assay [4], the fold change (FC) was 20.8.
On to `O=C(Nc1ccc(C(=O)Nc2ccc(C(=O)Nc3ccc(S(=O)(=O)O)c4cc(S(=O)(=O)O)cc(S(=O)(=O)O)c34)cc2)cc1)Nc1ccc(C(=O)Nc2ccc(C(=O)Nc3ccc(S(=O)(=O)O)c4cc(S(=O)(=O)O)cc(S(=O)(=O)O)c34)cc2)cc1`, for which the Activity at Coagulation factor XI [3] is greater than 90%.
